Consider five molecules from patent publication US6626982B1, “Compound storage” (AstraZeneca AB, priority 1998, dated 2003).

The nature of data set [1]: Adsorption onto Florisil and desorption into DMSO, quantified by RP-HPLC against a 10 mM control solution. It is filed as physicochemical. The conditions noted are these: for Conc. (mM) of Compound in DMSO after desorption from Florisil / Conc. (mM) of Z-Trp-NH2 in DMSO after desorption from Florisil: control 10.00; for Conc. (mM) of Z-Trp-NH2 in DMSO after desorption from Florisil: nominal conc. 10 mM. On the procedure:
1. 16.9 mg (50 μmol) of Z-Trp-NH2 in DMSO (0.5-5 ml) added to carrier (100 mg, 225 mg and 475 mg).
3. Evaporate off DMSO using centrifugal evaporator (70°/1 hr).
4. Mix resulting solid with spatula to ensure distribution as even as possible.
5. Weigh duplicate samples (to contain nominal 10 μmol Z-Trp-NH2) into vials.
6. Add DMSO to achieve 10^−2M conc. (nominal).
7. Dilute for HPLC analysis and compare with 10^−2M control solution of Z-Trp-NH2 similarly diluted.
Z-Trp-NH2 (169 mg) was dissolved in DMSO (50 ml) to give a 10 mM solution. Aliquots of the solution (5 ml, 50 μmol) were added to a 100 mg and a 225 mg sample of Florisil™ in 2-dram glass vials. The samples were vortexed for approximately one minute and the DMSO removed in vacuo by evaporation at 70° for 1 h in a centrifugal evaporator (GeneVac Atlas HT4™). After evaporation the samples were removed and checked visually. In each case dry solids were obtained in the form of free flowing powders virtually indistinguishable from the original Florisil™. The nominal loadings of the adsorbed samples were calculated as 207 and 427 μmol/g of Z-Trp-NH2.
Duplicate amounts (11.7 and 24.2 mg respectively) of the 427 and 207 μmol/g Z-Trp-NH2/Florisil™ samples were weighed into glass vials. DMSO (0.5 ml) was added to each vial and the vials were agitated gently for 15 min to give a nominal concentration of 10 mM of Z-Trp-NH2. Aliquots from each vial were diluted 100-fold with CH3CN and analysed by RP-HPLC monitoring by UV at […]. The peak areas obtained for the desorbed Z-Trp-NH2 DMSO solutions were compared with those obtained using a 10 mM control soln of Z-Trp-NH2 in DMSO similarly diluted.
Using a procedure analogous to that used for Z-Trp-NH2 the following results were obtained (Table 4 and FIG. 3)

Data set [2] is described as follows: Stability of Fmoc-Arg in DMSO and when adsorbed onto Florisil (HPLC). It is filed as physicochemical.
[3] abbreviates: ratio of compound to Florisil 200.0 μmol/g.
Setting [4] is: ratio of compound to Florisil 200.1 μmol/g.
Where [5] appears, read: ratio of compound to Florisil 397.5 μmol/g.
Setting [6] is: ratio of compound to Florisil 400.6 μmol/g.

Values joined by “and” are separate entries in the source; they are usually repeats but may differ in a detail not shown here. Equal values may be shown once.

As to Boc-Naphthylalanine [Boc-Nal], the “Conc. (mM) of Compound in DMSO after desorption from Florisil” value (“Conc. (mM) of Compound in DMSO” below) in data set [1] (setting [3]) is given as 9.10 mM; in data set [1] (setting [4]) it was 9.06 mM; in data set [1] (setting [5]), 9.64 mM; in data set [1] (setting [6]) it was 9.64 mM.

In the case of `Cl.NC(=O)[C@@H](N)Cc1c[nH]c2ccccc12` [Trp-NH2.HCl, Tryptophan amide hydrochloride], the “Conc. (mM) of Compound in DMSO” value is listed as 10.04 mM in data set [1] (setting [3]), 10.31 mM in data set [1] (setting [4]), 11.93 mM in data set [1] (setting [5]) and 10.51 mM in data set [1] (setting [6]).

As for `N=C(N)NCCC[C@H](NC(=O)OCC1c2ccccc2-c2ccccc21)C(=O)O` [Fmoc-Arg, Fmoc-Arginine], the “Overall adsorption/desorption result with Florisil” value in data set [1] (comparable to those obtained with Z-Trp-NH2) is given as “apparent low release”. The “Conc. (mM) of Compound in DMSO” value in data set [1] (setting [3]) was determined as 7.70 mM; in data set [1] (setting [4]), 7.65 mM; in data set [1] (setting [5]), 5.11 mM; in data set [1] (setting [6]), 5.53 mM. In addition, the “Decomposition in DMSO” value in data set [2] (10^-2 M in DMSO, after 24 hours at ambient temperature) was “decomposes completely”. Also, the “Stability when adsorbed onto Florisil” value in data set [2] (adsorbed onto Florisil, some decomposition during adsorption/desorption when DMSO is present) is recorded as “stable”. Moreover, the “Detection by HPLC after centrifugal evaporation and dissolution into DMSO” value in data set [2] (control experiment, no Florisil added) is reported as “not possible to detect any Fmoc-Arg”.

With `NC(=O)[C@H](Cc1c[nH]c2ccccc12)NC(=O)OCc1ccccc1` [Z-Trp-NH2], the “Conc. (mM) of Z-Trp-NH2 in DMSO after desorption from Florisil” value is 9.21 mM and 9.79 mM in data set [1] (ratio of Z-Trp-NH2 to Florisil 200 μmol/g); 10.26 mM and 10.09 mM in data set [1] (ratio of Z-Trp-NH2 to Florisil 400 μmol/g).

In the case of Boc-Pyridylalanine [Boc-Pal], the “Conc. (mM) of Compound in DMSO” value in data set [1] (setting [3]) was 9.75 mM; in data set [1] (setting [4]) it was 14.20 mM; in data set [1] (setting [5]), 11.06 mM; in data set [1] (setting [6]), 10.63 mM.
